Measured values as given in article PMC10419416, “Fighting Pseudomonas aeruginosa Infections: Antibacterial and Antibiofilm Activity of D-Q53 CecB, a Synthetic Analog of a Silkworm Natural Cecropin B Variant” (International Journal of Molecular Sciences, 2023).
Converted amounts (≈) assume the structure as drawn. Non-standard residues stand in square brackets, D forms with d. Residues, ends and D or L forms follow the SMILES beside them. No end group written: not given here.

Experiments:
[1] = test system: P. aeruginosa ATCC 27853 and ATCC 25668 strains; assay: microbe, parasite or virus in culture; format: cell-based, Pseudomonas aeruginosa; conditions: ATCC 27853, 24 h
Protocol: The following strains were used: P. aeruginosa ATCC 27853, ATCC 25668, and PAO1-L (Lausanne subline). All strains were grown at 37 °C in Luria Bertani (LB) medium or in Luria Bertani Agar (LBA) plates.
The antibacterial activities of L- and D-Q53 CecB were evaluated by determining (i) the MIC and (ii) the MBC. Tobramycin (Merck) was used as an antibiotic control. (i) An overnight (ON) bacterial culture was diluted to 1 × 10^6 cells/mL in LB medium. 50 µL/well were seeded in sterile polypropylene 96-well plates (Corning, Corning, NY, USA) and added with 50 µL LB medium, containing serial dilutions of each compound (final concentrations of L- and D-Q53 CecB peptides from 1.1 to 35.2 µM; final concentrations of tobramycin from 0.26 to 17 μM; each condition in triplicate). Microbial suspensions in the growing medium (positive control) and wells with only the medium (negative controls) were processed in parallel. Plates were incubated 24 h at 37 °C with agitation (300 rpm), and the absorbance was measured at 600 nm in a microplate reader. The MIC was considered as the lowest concentration determining a delta optical density at 600 nm (ΔOD600) equal to 0 ± 0.05. The ΔOD600 was determined by subtracting the OD600 recorded at time 0 from that obtained after 24 h. Each experiment was performed at least three times. […] For each sample, 100 μL of 1:10, 1:100, and 1:1000 dilutions were plated on LBA plates, and colonies were counted after 24 h at 37 °C. […] Each experiment was performed at least twice.

[2] = test system: P. aeruginosa ATCC 25668, mucoid strain; format: cell-based, Pseudomonas aeruginosa; conditions: for inhibitory effect on biofilm formation: 1/32 and 1/64 MIC, 24 h
Protocol: (§1) An ON bacterial culture was diluted to 2 × 10^6 cells/mL in an LB medium. 50 µL/well were seeded in a sterile non-treated polystyrene 96-well plate (Corning) and added with 50 µL LB medium containing serial dilutions of each compound (final concentrations of L- and D-Q53 CecB peptides: from 0.034 to 17.6 µM; final concentrations of tobramycin: 0.27 and 0.53 μM, and from 2.14 to 17 μM). Each condition was tested in three-six replicates. Wells containing untreated bacteria (negative controls) or LB medium only (blank) were followed in parallel. Each plate was incubated for 24 h at 37 °C without agitation. After washing twice, samples were stained with a 0.1% crystal violet solution for 20 min, washed three times, and incubated in 30% acetic acid for 20 min, as in [74]. Plates were read at 595 nm using a microplate reader. For each sample, the biofilm biomass percentage was calculated relative to that of the untreated control showing the highest OD value, set equal to 100%. Each experiment was performed at least twice.

[3] = test system: P. aeruginosa ATCC 27853, non-mucoid strain; format: cell-based, Pseudomonas aeruginosa; conditions: for inhibitory effect on biofilm formation: 1/32 and 1/64 MIC, 24 h; for decrement in biofilm biomass (inhibition of biofilm formation): ATCC 27853, 24 h
Protocol: as §1

[4] = test system: P. aeruginosa ATCC 27853 and ATCC 25668 strains; assay: Growth curves with sub-MIC concentrations; format: cell-based, Pseudomonas aeruginosa; conditions: growth curves 14 h, OD600, AUC vs untreated; both strains; 1 MIC = 2.2 μM
Protocol: Microbial suspensions in LB medium (positive controls) and wells with LB medium only (negative controls) were followed in parallel. Plates were incubated at 37 °C with agitation (300 rpm), and the absorbance was measured every 2 h for 14 h at 600 nm. For each time point, a ΔOD600 was determined by subtracting the OD600 recorded at time 0 from those obtained at the different time-points. To establish the peptide concentration not inhibiting bacterial growth, for each treatment, the Area Under the Curve (AUC) was calculated and compared to that of untreated controls.
Supplementary Figure S3. Growth curves of P. aeruginosa treated with of L-Q 53 CecB and D-Q 53 CecB peptides at sub-MIC concentrations. ATCC 27853 strain treated with (A) L-Q 53 CecB and (B) D-Q 53 CecB. ATCC 25668 strain treated with (C) L-Q 53 CecB and (D) D-Q 53 CecB. Bacteria treated with 1 MIC L- or D- Q53 CecB peptides and untreated bacteria represent positive and negative controls, respectively. One-w ay ANOVA followed by post-h oc Dunnett’s tests […]
samples and negative controls [A TCC 27853: (A) F4, 10 = 257.8, p < 0.0001; 1/2 MIC L-Q 53 CecB vs negative controls:
Dunnett’s test p > 0.05, ns; (B) F 4,10 = 256.9, p < 0.0001; 1/4 MIC D-Q 53 CecB vs negative controls: Dunnett’s test p > 0.05, […]
= 43.58, p < 0.0001; 1/4 MIC D-Q 53 CecB vs negative controls: Dunnett’s test p > 0.05, ns]. […]

[5] = test system: human red blood cells (hRBCs); format: cell-based; conditions: for MHC (minimum hemolytic concentration causing 5% hemolysis of hRBCs): red cells of human, 1 h
Protocol: The peptide hemolytic activity was evaluated against human red blood cells (hRBCs) using the Haemolysis Assay Kit (HaemoScan, Groningen, The Netherlands), following the manufacturer’s instructions. 180 μL of hRBC solution were incubated 1 h at 37 °C with 20 μL of serially diluted L- and D-CecB Q53 peptides (final concentrations of 5, 10, 25, 50, 100, 200 µM) in triplicate. As hemolysis positive and negative controls, hRBC solutions incubated, respectively, with 0.2% Triton X and PBS, were followed in parallel. After centrifugation 10 min at 10,000× g, each supernatant was diluted 1:10 in the Assay Buffer and read at 450 nm with a microplate reader.
Hemolysis was evaluated according to the following equation: Hemolysis (%)=ODCecB−OD0/ODCtrl−OD0×100, where ODCecB is the OD in the presence of the peptide, ODCtrl is the OD of treated controls (0.2% Triton X), and OD0 is the background absorbance. The experiment was performed at least twice.

Row | Compound | MBC [1] [µM] | inhibitory effect on biofilm formation [2] | decrement in biofilm biomass (inhibition of biofilm formation) ([2]; ATCC 25668, 24 h) [%] | mean decrement in biofilm biomass (inhibition of biofilm formation) ([2]; ATCC 25668, 24 h) [%] | inhibitory effect on biofilm formation [3] | decrement in biofilm biomass (inhibition of biofilm formation) [3] [%] | sub-MIC concentration not inhibiting bacterial growth [4] | mean hemolysis ([5]; 100 µM) [%] | MHC (minimum hemolytic concentration causing 5% hemolysis of hRBCs) [5] [µM]
1 | CC[C@@H](C)[C@@H](NC(=O)[C@@H](C)NC(=O)[C@@H](CCCCN)NC(=O)[C@@H](C)NC(=O)[C@@H](CO)NC(=O)CNC(=O)[C@@H](CC(C)C)NC(=O)[C@H](NC(=O)[C@@H](CCC(N)=O)NC(=O)[C@H](NC(=O)[C@@H](C)NC(=O)[C@H]1CCCN1C(=O)CNC(=O)[C@@H](C)NC(=O)[C@@H](CCCCN)NC(=O)[C@H](NC(=O)[C@H](NC(=O)CNC(=O)[C@@H](CC(=O)O)NC(=O)[C@@H](CCCNC(=N)N)NC(=O)[C@H](NC(=O)[C@@H](CC(N)=O)NC(=O)[C@@H](CCCNC(=N)N)NC(=O)CNC(=O)[C@@H](CCSC)NC(=O)[C@@H](CCCCN)NC(=O)[C@@H](CCC(=O)O)NC(=O)[C@H](NC(=O)[C@@H](CCCCN)NC(=O)[C@@H](CCCCN)NC(=O)[C@@H](Cc1ccccc1)NC(=O)[C@H](NC(=O)[C@@H](CCCCN)NC(=O)[C@@H](Cc1c[nH]c2ccccc12)NC(=O)[C@H](N)CCCNC(=N)N)[C@H](C)CC)[C@H](C)CC)[C@H](C)CC)[C@H](C)CC)C(C)C)[C@H](C)CC)C(C)C)C(N)=O [D-Q53 CecB] (H-[dR][dW][dK][dI][dF][dK][dK][dI][dE][dK][dM]G[dR][dN][dI][dR][dD]G[dI][dV][dK][dA]G[dP][dA][dI][dQ][dV][dL]G[dS][dA][dK][dA][dI]-NH2; N-terminus and C-terminus assumed) | 4.40 (≈ 17.1 µg/mL) | did not show any significant inhibitory effect | 30 to 44 | 93 | did not show any significant inhibitory effect | 30 to 60 | 1/4 | 5.9 | 100
2 | RWKIFKKIEKMGRNIRDGIVKAGPAIQVLGSAKAI-NH2 [L-Q53 CecB] | 11 | did not show any significant inhibitory effect | 30 to 44 |  | did not show any significant inhibitory effect | 30 to 60 | 1/2 |  | >200
